Results taken from ChEMBL document CHEMBL1153604, “Inhibition of Pseudomonas aeruginosa quorum sensing by AI-2 analogs” (Bioorg Med Chem Lett, 2009).
Active and inactive are the calls of the source. No cut-off for these calls is given here.

Experiments:
[1] = biological target: Autoinducer 2-binding periplasmic protein LuxP (Vibrio harveyi) (UniProt P54300); experiment: Agonist activity at Vibrio harveyi MM30 LuxP assessed as inhibition of autoinducer-2-induced quorum sensing; type: functional
Pseudomonas aeruginosa [2] = experiment: Inhibition of wild type Pseudomonas aeruginosa PAO1 growth at 100 uM; type: functional, organism-based
[3] = biological target: Autoinducer 2-binding periplasmic protein LuxP (Vibrio harveyi, UniProt P54300); experiment: Agonist activity at Vibrio harveyi BB170 LuxP assessed as inhibition of autoinducer-2-induced quorum sensing after 5 hrs by luminescence assay; type: functional
Autoinducer 2-binding periplasmic protein LuxP, sequence (P54300 whole entry): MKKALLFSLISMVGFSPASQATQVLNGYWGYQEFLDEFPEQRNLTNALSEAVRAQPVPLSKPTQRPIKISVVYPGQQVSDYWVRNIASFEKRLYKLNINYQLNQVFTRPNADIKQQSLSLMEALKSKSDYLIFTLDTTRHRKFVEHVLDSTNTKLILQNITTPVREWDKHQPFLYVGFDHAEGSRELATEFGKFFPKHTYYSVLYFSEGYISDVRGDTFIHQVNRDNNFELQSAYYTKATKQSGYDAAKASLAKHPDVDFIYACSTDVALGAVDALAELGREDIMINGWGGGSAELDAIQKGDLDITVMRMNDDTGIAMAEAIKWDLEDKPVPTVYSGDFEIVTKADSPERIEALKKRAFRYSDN

Pseudomonas aeruginosa [4] = experiment: Inhibition of Pseudomonas aeruginosa PAO-JP2-luxCDABE quorm sensing at 200 uM measured every 20 min by luminescence assay in presence of 3-oxo-C12-HSL
Pseudomonas aeruginosa [5] = experiment: Inhibition of Pseudomonas aeruginosa PAO-JP2-luxCDABE quorm sensing measured every 20 mins in presence of 3-oxo-C12-HSL
Pseudomonas aeruginosa [6] = experiment: Inhibition of wild type Pseudomonas aeruginosa PAO1-luxCDABE growth at >200 uM by luminescence assay; type: functional, organism-based
[7] = test system: Pseudomonas aeruginosa PAO1; experiment: Inhibition of wild type Pseudomonas aeruginosa PAO1 assessed as reduction in pyocyanin production at 100 uM after 19 hrs […]; parameters: scale not given: the % may be the effect or the level left
[8] = test system: Pseudomonas aeruginosa PAO1; experiment: Inhibition of wild type Pseudomonas aeruginosa PAO1-luxCDABE quorm sensing measured after 20 mins by luminescence assay

Autoinducer 2-binding periplasmic protein LuxP (Vibrio harveyi), sequence (P54300 whole entry): as above

Activity [1]	EC50 [3]	inhibition (Pseudomonas aeruginosa [4])	Activity (Pseudomonas aeruginosa [5])	Activity [7]	inhibition [8]	SMILES	inhibition (Pseudomonas aeruginosa [2])	inhibition (Pseudomonas aeruginosa [6])
inactive	1.81 µM	–	–	–	–	CCCCCCCC(=O)C(=O)[C@@H](O)CO	inactive	–
inactive	1.35 µM	40%	Dose-dependent effect	53%	40%	CCCCCC(=O)C(=O)[C@@H](O)CO	–	inactive
inactive	0.15 µM	–	–	–	–	CC(=O)C(=O)[C@@H](O)CO	inactive	–
inactive	1.01 µM	40%	Dose-dependent effect	59%	40%	CCCCC(=O)C(=O)[C@@H](O)CO	–	inactive
inactive	1.52 µM	–	–	–	–	CCCCCCC(=O)C(=O)[C@@H](O)CO	inactive	–
inactive	0.75 µM	–	–	–	–	CCCC(=O)C(=O)[C@@H](O)CO	inactive	–
Active	0.58 µM	–	–	–	–	CCC(=O)C(=O)[C@@H](O)CO	inactive	–
